Results on five compounds are retold here after publication PMC7937321 (Genes and Environment, 2021).

Series [1] has as its system rodent. The conditions noted are these: cited from earlier work; for Carcinogenicity Studies: rodent, ref [20]-[41], Table 2.
The test system of series [2] is L5178Y mouse lymphoma cells. The arrangement: key to MLA (TK gene locus), Without S9 / MLA (TK gene locus), With S9: Positive; Negative. The following applies: ref [27], [46]-[53], Table 3, cited from earlier work.
The test system of series [3] is TA1538, TA100, TA98, TA97, TA1535. The conditions noted are these: cited from earlier work; for Bacterial reverse mutation assay, With S9 / Bacterial reverse mutation assay, Without S9: ref [18]-[40], Table 2.
In series [4] the test system is rodent. The following applies: cited from earlier work.
Series [5] deals with human lymphoblastoid TK6 cells, thymidine kinase gene. Description: TK gene mutation assay (TK6 assay, OECD TG490). The conditions noted are these: for TK6 assay overall judgment: all treatments; for TK mutation assay, With S9 / TK mutation assay, Without S9: short-term 4 h; for TK mutation assay, With S9: with rat liver S9.
In the next series the test system is TK6 cells. Description: Cytotoxicity in the TK6 assay (CE, RS, RSG, RTG).
For another series, the system named is livers of rats. The following applies: ref [74]; cited from earlier work.
Series [6] deals with human lymphoblastoid TK6 cells, thymidine kinase gene.
Where [7] appears, read: Short-term treatment with metabolic activation.
[8] abbreviates: Short-term treatment without metabolic activation.
[9] abbreviates: chromosomal Aberration test, micronucleus test, transgenic rodent gene mutation assay, ref [48], [58]–[63].

Like-named read-outs stand apart in the source and are kept apart here.

Consider `Cl.ClCc1ccccn1` [2-(Chloromethyl) pyridine HCl], for which the “Carcinogenicity Studies” value in the series on rodent [1] was “Neg”. For the same compound, in series [2] (with S9), the “MLA (TK gene locus), With S9” value is “Pos”. In addition, the “MLA (TK gene locus), Without S9” value in series [2] was “Pos”. For the same compound, the “The Highest Specific Activity and the Strain” value in series [3] (TA100 with S9, ref Table 2) is recorded as 98.6 revertants/mg in TA100 with S9. Also, in series [3], the “Bacterial reverse mutation assay, With S9” value is reported as “Pos” and the “Bacterial reverse mutation assay, Without S9” value is “Pos”. Also, the “in vivo genotoxicity tests” value in the series with rodent [4] (in vivo) is “negative”. Further, in series [5] (4h treatment (+S9)), the “TK6 assay result (mutant frequency increase, judgment)” value is given as “clear concentration-dependent increase of MF”. Further, the “TK6 assay result (mutant frequency increase, judgment)” value in series [5] (4h treatment (-S9)) was “clear concentration-dependent increase of MF”. Also, in series [5] (setting [7]), the “Dunnett type test, test statistic” value was 5.868 and the “Trend test, test statistic” value was 3.912. For the same compound, in series [5] (setting [8]), the “Dunnett type test, test statistic” value is 5.268 and the “Trend test, test statistic” value is reported as 3.417. In addition, in series [5], the “TK6 assay overall judgment” value is listed as “positive”; the “TK mutation assay, With S9” value is given as “Pos”; the “TK mutation assay, Without S9” value was “Pos”. Also, in the series on TK6 cells (60 μg/mL, absence of S9, short-term), the “cytotoxicity (relative colony efficiency)” value was “About 80%”. The “cytotoxicity (relative colony efficiency)” value in the series with TK6 cells (100 μg/mL, presence of S9, short-term) is “About 80%”.

Turning to `Cc1ccc(N)cc1N` [2,4-Diaminotoluene, reference compound], the carcinogenicity entry in the series with rodent [1] (report of the National Toxicology Program, ref [24]) is on record as “carcinogenic”. In the series with livers of rats, the “DNA adducts in the livers of rats” value is reported as “Significant DNA adducts were detected”.

With `Oc1cccc2cccnc12` [8-Hydroxyquinoline], in series [6], the “TK mutation assay, With S9” value was “Pos” and the “TK mutation assay, Without S9” value is recorded as “Neg”. Moreover, in series [6] (human), the “Trend test, test statistic” value is 4.896 / 1.645 / p < 0.05. In the series with rodent [1], the “Carcinogenicity Studies” value was “Neg”. Moreover, the “MLA (TK gene locus), Without S9” value in series [2] is “Pos”. Further, the “The Highest Specific Activity and the Strain” value in series [3] (TA97 with S9, ref [28]) was 21,400 revertants/mg. Also, in series [3] (TA100 with S9, ref Table 2), the “The Highest Specific Activity and the Strain” value was 16,000 revertants/mg. Moreover, in series [3] (ref Table 2), the “specific activity values obtained from Ames test” value was “exceeding 10,000 revertants per milligram”. Moreover, in series [3], the “Bacterial reverse mutation assay, With S9” value is on record as “Pos” and the “Bacterial reverse mutation assay, Without S9” value is reported as “Neg”. For the same compound, the “in vivo genotoxicity tests” value in the series on rodent [4] (setting [9]) is on record as “negative”.

As for `O=[N+]([O-])c1cccc2ccccc12` [1-Nitronaphthalene], the “Carcinogenicity Studies” value in the series with rodent [1] is listed as “Neg”. Besides, in series [3] (TA100 with S9, ref Table 2), the “The Highest Specific Activity and the Strain” value is recorded as 12,500 revertants/mg. In addition, the “The Highest Specific Activity and the Strain” value in series [3] (TA100 without S9, ref Table 2) was 14,700 revertants/mg. The “specific activity values obtained from Ames test” value in series [3] (ref Table 2) is “exceeding 10,000 revertants per milligram”. In series [3], the “Bacterial reverse mutation assay, With S9” value is recorded as “Pos” and the “Bacterial reverse mutation assay, Without S9” value is “Pos”. Moreover, the “in vivo genotoxicity tests” value in the series on rodent [4] (setting [9]) is given as “negative”. For the same compound, the “TK6 assay result (mutant frequency increase, judgment)” value in series [5] (4h treatment (+S9)) is listed as “significant increase in MF”. In series [5] (4h treatment (-S9)), the “TK6 assay result (mutant frequency increase, judgment)” value is on record as “significant increase in MF”. In series [5], the “TK6 assay overall judgment” value was “positive”; the “TK mutation assay, With S9” value is “Pos”; the “TK mutation assay, Without S9” value is “Pos”.

Regarding `CC(=O)Nc1ccc(C(=O)CCl)cc1` [4-(Chloroacetyl)-acetanilide, 4-(Chloroacetyl)acetanilide], in series [6], the “TK6 assay overall judgment” value is “positive”; the “TK mutation assay, Long term” value is “Pos”; the “TK mutation assay, With S9” value is recorded as “Neg”; the “TK mutation assay, Without S9” value was “Pos”. Moreover, the “linear trend test of MF” value in series [6] is “no statistically significant linear trends”. Besides, in the series with rodent [1], the “Carcinogenicity Studies” value was “Neg”. Also, the “The Highest Specific Activity and the Strain” value in series [3] (TA1538 with S9, ref [18], [19]) is listed as 600 revertants/mg in TA1538 with S9. In addition, in series [3], the “Bacterial reverse mutation assay, With S9” value was “Pos” and the “Bacterial reverse mutation assay, Without S9” value is reported as “Neg”. In the series with rodent [4] (setting [9]), the “in vivo genotoxicity tests” value is “negative”.
